# According to patent publication US20240092799A1, “MNK INHIBITORS” (Hepagene Therapeutics (HK) Limited, priority 2020, published 2024):
# Experiments:
# MNK1 = MNK1 (Homo sapiens (Human), UniProt Q9BUB5); test: MNK Biochemical Enzymatic Assay (ADP-Glo), MNK1 binding assay
# Procedure: MNK Biochemical Enzymatic Assay. This protocol establishes the binding assays for MNK1 and MNK2 using ADP-Glo assay. MNK phosphorylates the substrate and converts ATP to ADP, which was detected by Envision and used to reflect the reminding activity of MNK. Reagents and equipment used in the assay are listed below, followed by the protocol.
# • a) Add 50 μL compound to 384-well dilution plate • b) Dilute compound 1:3 in succession in DMSO for each column for 10+0 pts (refer to dilution plate map) • c) Transfer 0.1 μL diluted compound solution in each row to 384 assay plate using Echo, each column containing 2 replicates (refer to assay plate map) • d) Add 5 μL enzyme working solution to 384-well assay plate, centrifuge 1000 RPM for 1 min • e) Incubate at 25° C. for 15 min • f) Add 5 μL substrate working solution to initiate reaction • g) Incubate at 25° C. for 60 min • h) Add 10 μL ADP Glo reagent, centrifuge 1000 RPM for 1 min • i) Incubate at 25° C. for 60 min • j) Add 20 μL kinase detection reagent, centrifuge 1000 RPM for 1 min • k) Incubate at 25° C. for 60 min • l) Read on Envision for US LUM as RLU • m) Data analysis: IC50s were determined based on a non-linear regression analysis of data collected.
# MNK2 = MNK2 (Homo sapiens (Human), UniProt Q9HBH9); test: MNK Biochemical Enzymatic Assay (ADP-Glo), MNK2 binding assay
# Chain of MNK2 (Q9HBH9 whole entry): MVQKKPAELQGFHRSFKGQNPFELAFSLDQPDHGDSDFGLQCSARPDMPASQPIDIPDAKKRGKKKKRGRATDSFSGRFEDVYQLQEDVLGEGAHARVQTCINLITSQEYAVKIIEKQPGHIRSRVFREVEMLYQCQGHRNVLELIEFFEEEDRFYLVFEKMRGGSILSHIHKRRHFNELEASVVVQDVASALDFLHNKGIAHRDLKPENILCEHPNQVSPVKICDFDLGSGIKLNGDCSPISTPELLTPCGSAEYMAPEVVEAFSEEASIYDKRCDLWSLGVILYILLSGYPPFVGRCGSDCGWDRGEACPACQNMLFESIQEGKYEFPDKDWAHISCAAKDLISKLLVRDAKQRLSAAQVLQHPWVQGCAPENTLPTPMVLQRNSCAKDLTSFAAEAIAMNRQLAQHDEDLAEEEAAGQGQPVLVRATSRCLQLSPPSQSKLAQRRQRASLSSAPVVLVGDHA
# How it was run: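 Human MNK1 or MNK2 was preincubated with a 10-point, 1:3 serial dilution of compound for 15 min at 25 °C. Substrate was then added and the reaction ran 60 min at 25 °C. ADP formed was read by ADP-Glo luminescence, and IC50 came from non-linear regression.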
# TMD-8 cell p-IF4E = test: p-eIF4E Signaling Cellular Assay (CisBio HTRF) in TMD-8 cells; assay type: cell-based; conditions: Homo sapiens, TMD8, 40 min, 40 min treatment
# How it was run: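 TMD-8 cells (20 k/well, exponential phase, RPMI 1640 + 10% FBS) treated with compound for 40 min at 37 °C, then lysed for 30 min and incubated overnight at RT with HTRF antibodies. 665/620 nm ratio converted to % inhibition vs controls; IC50 from variable-slope nonlinear fit.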
# Chain of MNK1 (Q9BUB5 other isoform, or with tags, fused parts or gaps isoform Q9BUB5-2): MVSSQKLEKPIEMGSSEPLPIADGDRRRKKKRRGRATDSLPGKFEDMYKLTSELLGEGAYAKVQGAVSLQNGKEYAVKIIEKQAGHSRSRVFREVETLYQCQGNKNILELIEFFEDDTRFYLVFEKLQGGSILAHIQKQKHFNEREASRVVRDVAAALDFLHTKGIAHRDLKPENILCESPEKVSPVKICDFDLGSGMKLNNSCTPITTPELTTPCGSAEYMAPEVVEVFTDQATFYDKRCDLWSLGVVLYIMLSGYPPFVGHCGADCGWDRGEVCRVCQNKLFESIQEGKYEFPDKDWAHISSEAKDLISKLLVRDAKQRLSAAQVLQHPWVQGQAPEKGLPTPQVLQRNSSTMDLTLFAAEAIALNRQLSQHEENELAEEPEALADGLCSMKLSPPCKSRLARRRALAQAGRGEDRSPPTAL
SMILES,IC50 (MNK1) [nM],IC50 (MNK2) [nM],IC50 (TMD-8 cell p-IF4E) [nM]
"Nc1cc(Nc2c3c(c4n(c2=O)C2(CCCCC2)NC4=O)CCC3)ncn1 [Compound I, 6′-((6-Aminopyrimidin-4-yl)amino)-8′,9′-dihydrospiro[cyclohexane-1,3′-cyclopenta[c]imidazo[1,5-a]pyridine]-1′,5′(2′H,7′H)-dione]",> 1000,> 1000,–
"Nc1cc(Nc2c(=O)n3c(c4ccccc24)C(=O)NC32CCCCC2)ncn1 [Compound III, 6′-((6-Aminopyrimidin-4-yl)amino)-2′H-spiro[cyclohexane-1,3′-imidazo[5,1-a]isoquinoline]-1′,5′-dione]",> 1000,> 1000,–
"C[C@@H]1COCCN1C(=O)C1CCc2c(sc3ncnc(Nc4cc5c(s4)C(=O)NC54CCCCC4)c23)C1 (stereo partly drawn) [Compound XXV-C, 2′-((7-((R)-3-Methylmorpholine-4-carbonyl)-5,6,7,8-tetrahydrobenzo[4,5]thieno[2,3-d]pyrimidin-4-yl)amino)spiro[cyclohexane-1,4′-thieno[2,3-c]pyrrol]-6′(5′H)-one]",–,10 to 100,100 to 1000
"Cn1cnc(Nc2cc(Nc3nc4c(s3)C(=O)NC43CCCCC3)ncn2)n1 [Compound XXVIII-K, 2′-((6-((1-methyl-1H-1,2,4-triazol-3-yl)amino)pyrimidin-4-yl)amino)spiro[cyclohexane-1,4′-pyrrolo[3,4-d]thiazol]-6′(5′H)-one]",–,0.1 to 10,10 to 100
"CNC(=O)Nc1cc(Nc2nc3c(s2)C(=O)NC32CCCCC2)ncn1 [Compound XXVIII-L, 1-methyl-3-(6-((6′-oxo-5′,6′-dihydrospiro[cyclohexane-1,4′-pyrrolo[3,4-d]thiazol]-2′-yl)amino)pyrimidin-4-yl)urea]",–,0.1 to 10,100 to 1000
"Cn1ccc(Nc2cc(Nc3nc4c(s3)C(=O)NC43CCCCC3)ncn2)n1 [Compound XXVIII-M, 2′-((6-((1-methyl-1H-pyrazol-3-yl)amino)pyrimidin-4-yl)amino)spiro[cyclohexane-1,4′-pyrrolo[3,4-d]thiazol]-6′(5′H)-one]",–,0.1 to 10,0.1 to 10
"O=C1NC2(CCCCC2)c2nc(Nc3cc(N[C@H]4C[C@@H](O)C4)ncn3)sc21 [Compound XXVIII-O, Cis-2′-((6-(((1s,3s)-3-hydroxycyclobutyl)amino)pyrimidin-4-yl)amino)spiro[cyclohexane-1,4′-pyrrolo[3,4-d]thiazol]-6′(5′H)-one]",–,0.1 to 10,100 to 1000
"CC(=O)N(C)c1ccnc(Nc2cc(Nc3nc4c(s3)C(=O)NC43CCCCC3)ncn2)c1 [Compound XXVIII-P, N-methyl-N-(2-((6-((6′-oxo-5′,6′-dihydrospiro[cyclohexane-1,4′-pyrrolo[3,4-d]thiazol]-2′-yl)amino)pyrimidin-4-yl)amino)pyridin-4-yl)acetamide]",–,0.1 to 10,10 to 100
"O=C1NC2(CCCCC2)c2nc(Nc3cc(Nc4ccc(N5CCOCC5)cn4)ncn3)sc21 [Compound XXVIII-Q, 2′-((6-((5-morpholinopyridin-2-yl)amino)pyrimidin-4-yl)amino)spiro[cyclohexane-1,4′-pyrrolo[3,4-d]thiazol]-6′(5′H)-one]",–,0.1 to 10,0.1 to 10
"CN1CCN(c2ccc(Nc3cc(Nc4nc5c(s4)C(=O)NC54CCCCC4)ncn3)nc2)CC1 [Compound XXVIII-R, 2′-((6-((5-(4-methylpiperazin-1-yl)pyridin-2-yl)amino)pyrimidin-4-yl)amino)spiro [cyclohexane-1,4′-pyrrolo[3,4-d]thiazol]-6′(5′H)-one]",–,0.1 to 10,0.1 to 10
"O=C1NC2(CCCCC2)c2cc(Nc3ncnc4c3CCN4)sc21 [Compound XXXI, 2′-((6,7-dihydro-5H-pyrrolo[2,3-d]pyrimidin-4-yl)amino)spiro[cyclohexane-1,4′-thieno[2,3-c]pyrrol]-6′(5′H)-one]",–,0.1 to 10,100 to 1000
"O=C1NC2(CCCCC2)c2cc(Nc3ncnc4[nH]c(C5CC5)cc34)sc21 [Compound XXXI-A, 2′-((6-cyclopropyl-7H-pyrrolo[2,3-d]pyrimidin-4-yl)amino)spiro[cyclohexane-1,4′-thieno[2,3-c]pyrrol]-6′(5′H)-one]",–,0.1 to 10,0.1 to 10
"Cn1cnc(Nc2cc(Nc3cc4c(s3)C(=O)NC43CCCCC3)ncn2)c1 [Compound XXXI-B, 2′-((6-((1-methyl-1H-imidazol-4-yl)amino)pyrimidin-4-yl)amino)spiro[cyclohexane-1,4′-thieno[2,3-c]pyrrol]-6′(5′H)-one]",–,10 to 100,100 to 1000

# Continued, values first:
IC50 (MNK1) [nM],IC50 (MNK2) [nM],IC50 (TMD-8 cell p-IF4E) [nM],SMILES
0.1 to 10,0.1 to 10,–,"Cc1cc(Nc2cc(N)ncn2)c(=O)n2c1C(=O)N[C@]21C[C@H]2CC[C@@H]1C2 [Compound IIa, (1R,2R,4S)-6′-((6-Aminopyrimidin-4-yl)amino)-8′-methyl-2′H-spiro[bicyclo[2.2.1]heptane-2,3′-imidazo[1,5-a]pyridine]-1′,5′-dione]"
0.1 to 10,0.1 to 10,–,"Cc1cc(Nc2cc(N)ncn2)c(=O)n2c1C(=O)N[C@@]21C[C@H]2CC[C@@H]1C2 [Compound IIb, (1R,2S,4S)-6′-((6-aminopyrimidin-4-yl)amino)-8′-methyl-2′H-spiro[bicyclo[2.2.1]heptane-2,3′-imidazo[1,5-a]pyridine]-1′,5′-dione]"
–,0.1 to 10,10 to 100,"O=C1NC2(CCCCC2)c2nc(Nc3cc(N[C@H]4CCOC4)ncn3)sc21 [Compound XXVIII, (S)-2′-((6-((tetrahydrofuran-3-yl)amino)pyrimidin-4-yl)amino)spiro[cyclohexane-1,4′-pyrrolo[3,4-d]thiazol]-6′(5′H)-one]"
–,0.1 to 10,0.1 to 10,"O=C1NC2(CCCCC2)c2nc(Nc3ncnc4[nH]ccc34)sc21 [Compound XXVIII-A, 2′-((7H-pyrrolo[2,3-d]pyrimidin-4-yl)amino)spiro[cyclohexane-1,4′-pyrrolo[3,4-d]thiazol]-6′(5′H)-one]"
–,0.1 to 10,10 to 100,"O=C1NC2(CCCCC2)c2nc(Nc3cc(Nc4ccccn4)ncn3)sc21 [Compound XXVIII-B, 2′-((6-(pyridin-2-ylamino)pyrimidin-4-yl)amino)spiro[cyclohexane-1,4′-pyrrolo[3,4-d]thiazol]-6′(5′H)-one]"
–,0.1 to 10,10 to 100,"O=C1NC2(CCCCC2)c2nc(Nc3cc(NC(=O)C4CCCC4)ncn3)sc21 [Compound XXVIII-C, N-(6-((6′-oxo-5′,6′-dihydrospiro[cyclohexane-1,4′-pyrrolo[3,4-d]thiazol]-2′-yl)amino)pyrimidin-4-yl)cyclopentanecarboxamide]"
–,0.1 to 10,10 to 100,"COc1c(N)ncnc1Nc1nc2c(s1)C(=O)NC21CCCCC1 [Compound XXVIII-G, 2′-((6-amino-5-methoxypyrimidin-4-yl)amino)spiro[cyclohexane-1,4′-pyrrolo[3,4-d]thiazol]-6′(5′H)-one]"
–,0.1 to 10,10 to 100,"O=C1NC2(CCCCC2)c2nc(Nc3ccnc(N[C@H]4CCOC4)c3)sc21 [Compound XXVIII-H, (S)-2′-((2-((tetrahydrofuran-3-yl)amino)pyridin-4-yl)amino)spiro[cyclohexane-1,4′-pyrrolo[3,4-d]thiazol]-6′(5′H)-one]"
